Experiment [1] addresses T1, human Orexin type 1 receptors (Homo sapiens (Human), UniProt O43613). Briefly: Scintillation Proximity Assay (SPA) binding assay, [3H]SB-674042 displacement, CHO-hOX1 membranes. As to conditions: Table 1, [3H]SB-674042 2 nM.
In experiment [2] the target is T2, human Orexin type 2 receptors (Homo sapiens (Human), UniProt O43614). Briefly: Scintillation Proximity Assay (SPA) binding assay, [3H]EMPA displacement, HEK-hOX2 membranes. As to conditions: Table 1, [3H]EMPA 2 nM.
T2 sequence (O43614 whole entry): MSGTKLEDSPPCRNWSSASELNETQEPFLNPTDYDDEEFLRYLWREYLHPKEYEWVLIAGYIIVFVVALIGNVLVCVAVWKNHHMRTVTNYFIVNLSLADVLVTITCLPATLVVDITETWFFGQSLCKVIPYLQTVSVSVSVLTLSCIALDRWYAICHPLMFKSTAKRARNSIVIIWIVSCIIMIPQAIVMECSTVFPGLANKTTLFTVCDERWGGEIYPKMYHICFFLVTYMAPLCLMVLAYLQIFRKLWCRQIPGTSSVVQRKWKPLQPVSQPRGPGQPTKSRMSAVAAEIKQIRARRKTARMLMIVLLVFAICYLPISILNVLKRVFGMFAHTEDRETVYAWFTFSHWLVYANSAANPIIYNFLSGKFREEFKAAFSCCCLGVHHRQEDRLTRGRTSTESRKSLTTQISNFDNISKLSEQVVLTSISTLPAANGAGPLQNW
For experiment [3], the target named is T1, human Orexin type 1 receptors. Briefly: Intracellular calcium measurement (FLIPR), antagonism of Orexin-A at EC80 in CHO-hOX1 cells.
Experiment [4] addresses T2, human Orexin type 2 receptors. As to the kind of experiment: Intracellular calcium measurement (FLIPR), antagonism of Orexin-A at EC80 in CHO-hOX2 cells.

A value given as a limit tells only on which side of the number the result lay.

T1 sequence (O43613 whole entry): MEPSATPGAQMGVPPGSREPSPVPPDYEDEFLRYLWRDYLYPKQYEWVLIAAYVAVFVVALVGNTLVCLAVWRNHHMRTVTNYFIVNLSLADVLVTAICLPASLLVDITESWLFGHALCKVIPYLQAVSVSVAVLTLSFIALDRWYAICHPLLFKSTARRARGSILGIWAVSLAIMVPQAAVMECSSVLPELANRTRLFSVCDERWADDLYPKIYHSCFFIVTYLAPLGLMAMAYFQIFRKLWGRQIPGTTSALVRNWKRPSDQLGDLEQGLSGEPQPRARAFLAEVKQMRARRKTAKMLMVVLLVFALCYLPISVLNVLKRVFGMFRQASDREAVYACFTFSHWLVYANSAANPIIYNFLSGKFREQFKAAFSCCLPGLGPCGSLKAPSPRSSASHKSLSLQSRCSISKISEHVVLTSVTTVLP

For `Cc1nc(C(=O)N2C(COc3ccc(F)cc3)CC3CC2C3)c(-c2ccccc2)s1` (racemic) [Example 1], the “OX1 pKi (SPA binding)” value in experiment [1] stood at 8.14. In addition, in experiment [2], the “OX2 pKi (SPA binding)” value was found to be 6.97. The Ki was 6.31 nM in experiment [3] and 295 nM in experiment [4].
For `Cc1ccc(-c2nccs2)c(C(=O)N2C(COc3ccc(F)cc3)CC3CC2C3)n1` (single isomer, unassigned) [Example 6, (3S or 3R) 3-(4-fluorophenoxymethyl)-2-{[6-methyl-3-(1,3-thiazol-2-yl)pyridin-2-yl]carbonyl}-2-azabicyclo[3.1.1]heptane], the Ki in experiment [3] is 5.13 nM; in experiment [4], 93.3 nM.
Take `Cc1ccc(-c2ncccn2)c(C(=O)N2C(COc3ccc(Cl)cn3)CC3CC2C3)c1` (racemic) [Example 32]: the results for the Ki in experiment [3] and in experiment [4] were 72.4 nM and 513 nM, respectively.
As for `Cc1ccc(-c2ncccn2)c(C(=O)N2C3CC(C3)C(C)C2COc2ccc(F)cn2)n1` (mixture of isomers) [Example 78, CIS/TRANS 3-{[(5-fluoropyridin-2-yl)oxy]methyl}-4-methyl-2-[6-methyl-3-(pyrimidin-2-yl)pyridine-2-carbonyl]-2-azabicyclo[3.1.1]heptane], the Ki in experiment [3] was 35.5 nM; in experiment [4], 234 nM.
For `Cc1nc(C(=O)N2C3CC(C3)C(C)C2COc2cc3ccccc3cn2)c(-c2ccccc2)s1` (mixture of isomers) [Example 85, CIS/TRANS 3-{[4-methyl-2-(2-methyl-5-phenyl-1,3-thiazole-4-carbonyl)-2-azabicyclo[3.1.1]heptan-3-yl]methoxy}isoquinoline], in that order: 6.31 nM and 1050 nM.
`Cc1nc(C(=O)N2C3CC(C3)C(C)C2COc2ccc(F)cc2)c(-c2ccccc2)s1` (mixture of isomers) [Example 64, CIS/TRANS 3-(4-fluorophenoxymethyl)-4-methyl-2-(2-methyl-5-phenyl-1,3-thiazole-4-carbonyl)-2-azabicyclo[3.1.1]heptane]: the Ki in experiment [3] is 3.16 nM; in experiment [4], 282 nM.
For `Cc1ccc(-c2ncccn2)c(C(=O)N2C(COc3ccc(Cl)cn3)CC3CC2C3)c1` (single isomer, unassigned) [Example 33, (3S or 3R) 3-{[(5-chloropyridin-2-yl)oxy]methyl}-2-{[5-methyl-2-(pyrimidin-2-yl)phenyl]carbonyl}-2-azabicyclo[3.1.1]heptane], in that order: 24 nM and 110 nM.
For `Cc1ccc(-n2nccn2)c(C(=O)N2C(COc3ccc(F)cn3)CC3CC2C3)c1` (single isomer, unassigned) [Example 29, (3S or 3R) 3-{[(5-fluoropyridin-2-yl)oxy]methyl}-2-{[5-methyl-2-(2H-1,2,3-triazol-2-yl)phenyl]carbonyl}-2-azabicyclo[3.1.1]heptane], in that order: 46.8 nM and 617 nM.
For `Cc1ccc(-c2ncccn2)c(C(=O)N2C(COc3ccc(C(F)(F)F)cn3)CC3CC2C3)c1` (racemic) [Example 35], in that order: 74.1 nM and 631 nM.
On to `Cc1nc(C(=O)N2C3CC(C3)[C@H](C)[C@@H]2COc2ccc(F)cc2)c(-c2ccccc2)s1` (single isomer, unassigned) [Example 68, (3S,4R or 3R,4S) 3-(4-fluorophenoxymethyl)-4-methyl-2-(2-methyl-5-phenyl-1,3-thiazole-4-carbonyl)-2-azabicyclo[3.1.1]heptane], for which the Ki in experiment [3] is 0.741 nM; in experiment [4], 138 nM.
On the same counts, the results for `Cc1ccc(-c2ncccn2)c(C(=O)N2C(CCOc3ccc(F)cc3)CC3CC2C3)c1` (racemic) [Example 41] are 22.4 nM and 224 nM.
For `Cc1nc(C(=O)N2C(COc3ccc(F)cn3)CC3CC2C3)c(-c2ccccc2)s1` (stereo not drawn) [Example 24], in that order: 46.8 nM and 759 nM.
On the same counts, the results for `Cc1nc(C(=O)N2C3CC(C3)C(C)C2COc2cnc3ccc(Cl)cc3n2)c(-c2ccccc2)s1` (mixture of isomers) [Example 84, CIS/TRANS 7-chloro-2-{[4-methyl-2-(2-methyl-5-phenyl-1,3-thiazole-4-carbonyl)-2-azabicyclo[3.1.1]heptan-3-yl]methoxy}quinoxaline] are 75.9 nM and 1860 nM.
As for `Cc1ccc(-c2ncccn2)c(C(=O)N2C(COc3ccc(Cl)cc3)CC3CC2C3)c1` (stereo not drawn) [Example 19], the Ki in experiment [3] is 91.2 nM; in experiment [4], 977 nM.
On the same counts, the results for `Cc1ccc(-n2nccn2)c(C(=O)N2C(COc3ccc(F)cc3)CC3CC2C3)c1` (single isomer, unassigned) [Example 12, (3S or 3R) 3-(4-fluorophenoxymethyl)-2-{[5-methyl-2-(2H-1,2,3-triazol-2-yl)phenyl]carbonyl}-2-azabicyclo[3.1.1]heptane] are 27.5 nM and 1050 nM.
On the same counts, the results for `Cc1ccc(-c2ncccn2)c(C(=O)N2C(COc3ccc(F)cc3)CC3CC2C3)c1` (racemic) [Example 16] are 28.8 nM and 537 nM.
For `Cc1ccc(-c2nccs2)c(C(=O)N2C(COc3ccc(F)cn3)CC3CC2C3)n1` (stereo not drawn) [Example 31], in that order: 97.7 nM and 776 nM.
Turning to `Cc1ccc(-c2ncccn2)c(C(=O)N2C(COc3ccc(C(F)(F)F)cn3)CC3CC2C3)c1` (single isomer, unassigned) [Example 36, (3S or 3R) 2-{[5-methyl-2-(pyrimidin-2-yl)phenyl]carbonyl}-3-({[5-(trifluoromethyl)pyridin-2-yl]oxy}methyl)-2-azabicyclo[3.1.1]heptane], the Ki in experiment [3] was 67.6 nM; in experiment [4], 200 nM.
Regarding `Cc1ccc(-c2ncccn2)c(C(=O)N2C3CC(C3)[C@H](C)[C@@H]2COc2ccc(F)cn2)n1` (single isomer, unassigned) [Example 81, (3S,4R or 3R,4S) 3-{[(5-fluoropyridin-2-yl)oxy]methyl}-4-methyl-2-[6-methyl-3-(pyrimidin-2-yl)pyridine-2-carbonyl]-2-azabicyclo[3.1.1]heptane], the Ki was 9.77 nM in experiment [3] and 58.9 nM in experiment [4].
For `Cc1ccc(-n2nccn2)c(C(=O)N2C(COc3ccc(F)cc3)CC3CC2C3)c1` (racemic) [Example 10], in that order: 14.8 nM and 347 nM.
For `Cc1ccc(-c2ncccn2)c(C(=O)N2C3CC(C3)[C@@H](C)[C@H]2COc2ccc(F)cc2)c1` (single isomer, unassigned) [Example 71, (3S,4R or 3R,4S) 3-(4-fluorophenoxymethyl)-4-methyl-2-[5-methyl-2-(pyrimidin-2-yl)benzoyl]-2-azabicyclo[3.1.1]heptane], in that order: 3.39 nM and 89.1 nM.
On the same counts, the results for `Cc1ccc(-c2ncccn2)c(C(=O)N2C3CC(C3)[C@@H](C)[C@@H]2COc2ccc(F)cn2)n1` (single isomer, unassigned) [Example 82, (3S,4S or 3R,4R) 3-{[(5-fluoropyridin-2-yl)oxy]methyl}-4-methyl-2-[6-methyl-3-(pyrimidin-2-yl)pyridin-2-carbonyl]-2-azabicyclo[3.1.1]heptane] are 10 nM and 2240 nM.
In the case of `Cc1ccc(-c2nccs2)c(C(=O)N2C(COc3ccc(F)cc3)CC3CC2C3)c1` (racemic) [Example 7], the inhibition constant (Ki) is 7.08 nM in experiment [3] and 141 nM in experiment [4].
For `Cc1ccc(-c2ncccn2)c(C(=O)N2C3CC(C3)[C@H](C)[C@H]2COc2ccc(F)cc2)c1` (single isomer, unassigned) [Example 70, (3S,4S or 3R,4R) 3-(4-fluorophenoxymethyl)-4-methyl-2-[5-methyl-2-(pyrimidin-2-yl)benzoyl]-2-azabicyclo[3.1.1]heptane], in that order: 13.5 nM and 2450 nM.
As to `Cc1ccc(-c2ncccn2)c(C(=O)N2C3CC(C3)[C@@H](C)C2COc2ccc(F)cn2)c1` (single isomer, unassigned) [Example 75, (3S,4R or 3R,4S) 3-{[(5-fluoropyridin-2-yl)oxy]methyl}-4-methyl-2-[5-methyl-2-(pyrimidin-2-yl)benzoyl]-2-azabicyclo[3.1.1]heptane], the inhibition constant Ki in experiment [3] is 10.5 nM; in experiment [4], 105 nM.
On the same counts, the results for `Cc1nc(C(=O)N2C3CC(C3)C(C)C2COc2ccc(F)cn2)c(-c2ccccc2)s1` (mixture of isomers) [Example 77, CIS/TRANS 3-{[(5-fluoropyridin-2-yl)oxy]methyl}-4-methyl-2-(2-methyl-5-phenyl-1,3-thiazole-4-carbonyl)-2-azabicyclo[3.1.1]heptane] are 21.9 nM and more than 1000 nM.
